We go through eight sequences from patent publication US20260250318A1, “COMPOSITIONS AND METHODS FOR CROSSING THE BLOOD BRAIN BARRIER” (VOYAGER THERAPEUTICS, INC., priority 2022, published 2026).

In test [1] the test system is brains, heart, liver, muscle, and DRG of the NHPs. The test can be described thus: Maturation of TTM-001 and TTM-002 capsids, NGS enrichment in NHP tissues. Format: in vivo. Conditions: relative to AAV9 control. In a few lines:
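Variants carry mutations within and flanking the loop IV peptide insert: positions 450–466 were triplet-randomized, while positions 449–466 received low-frequency point mutations. The combined pool went into two NHPs, and each peptide was scored by NGS enrichment ratio against AAV9.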

In test [2] the test system is brain. The test can be described thus: Matured TTM-001 and TTM-002 variants, NGS enrichment in mouse brain. In kind it is in vivo, mice. Conditions: relative to AAV9 control.
[3] abbreviates: NGS fold-enrichment of matured AAV capsid variants, NHP brain, RNA.
[4] abbreviates: NGS fold-enrichment of RNA, NHP brain.
[5] abbreviates: NGS fold-enrichment, DRG of NHPs.
Where [6] appears, read: NGS fold-enrichment, NHP liver DNA.
[7] abbreviates: NGS fold-enrichment, NHP liver RNA.
Where [8] appears, read: NGS fold-enrichment, NHP muscle.
[9] abbreviates: NGS fold-enrichment, RNA, brain of NHPs.
Setting [10] is: NGS fold-enrichment, heart of NHPs.
[11] abbreviates: NGS fold-enrichment, liver DNA of NHPs.
[12] abbreviates: NGS fold-enrichment, liver RNA of NHPs.
The mark [13] stands for this setting: NGS fold-enrichment, muscle of NHPs.
Where [14] appears, read: NGS fold-enrichment, brain of mice.
[15] abbreviates: NGS fold-enrichment, mouse brain.

Regarding KTFNGGGSPHSKAQYQQT, in test [1] (setting [3]), the “Fold Enrichment relative to AAV9, Brain (NHP)” value is recorded as 58.609 fold. Also, the “Fold Enrichment relative to AAV9, DRG (NHP)” value in test [1] (NHP DRG) came out at 0.000 fold. For the same sequence, in test [1] (NHP heart), the “Fold Enrichment relative to AAV9, Heart (NHP)” value was determined as 0.000 fold. The “Fold Enrichment relative to AAV9, Liver DNA (NHP)” value in test [1] (NHP liver, DNA) was 0.045 fold. In addition, the “Fold Enrichment relative to AAV9, Liver RNA (NHP)” value in test [1] (NHP liver, RNA) is recorded as 0.163 fold. Moreover, the “Fold Enrichment relative to AAV9, Muscle (NHP)” value in test [1] (NHP muscle) came to 0.000 fold. Also, in test [2] (mouse brain), the “Fold Enrichment relative to AAV9, Brain (Mouse)” value turned out to be 72.618 fold.
In the case of KTINGSGSPHSKAQKFET, the “Fold Enrichment relative to AAV9, Brain (NHP)” value in test [1] (setting [4]) and in test [1] (setting [9]) was 75.788 fold throughout. Moreover, the “Fold Enrichment relative to AAV9, DRG (NHP)” value in test [1] (setting [5]) is recorded as 0.000 fold; in test [1] (NGS fold-enrichment, NHP DRG), 0.000 fold. Also, the “Fold Enrichment relative to AAV9, Heart (NHP)” value in test [1] (NGS fold-enrichment, NHP heart) stood at 0.000 fold; in test [1] (setting [10]), 0.000 fold. The “Fold Enrichment relative to AAV9, Liver DNA (NHP)” value in test [1] (setting [6]) and in test [1] (setting [11]) was 0.093 fold in each case. The “Fold Enrichment relative to AAV9, Liver RNA (NHP)” value in test [1] (setting [7]) and in test [1] (setting [12]) was 0.108 fold each time. Moreover, the “Fold Enrichment relative to AAV9, Muscle (NHP)” value in test [1] (setting [8]) and in test [1] (setting [13]) was 0.028 fold in each case. For the same sequence, the “Fold Enrichment relative to AAV9, Brain (Mouse)” value in test [2] (setting [14]) and in test [2] (setting [15]) was 65.588 fold in each case.
As for KNAIGSGSPHSKAQNQQT, the “Fold Enrichment relative to AAV9, Brain (NHP)” value in test [1] (setting [3]) is recorded as 52.516 fold. Further, in test [1] (NHP DRG), the “Fold Enrichment relative to AAV9, DRG (NHP)” value is on record as 0.000 fold. In addition, the “Fold Enrichment relative to AAV9, Heart (NHP)” value in test [1] (NHP heart) was 0.000 fold. In test [1] (NHP liver, DNA), the “Fold Enrichment relative to AAV9, Liver DNA (NHP)” value was 0.198 fold. Further, the “Fold Enrichment relative to AAV9, Liver RNA (NHP)” value in test [1] (NHP liver, RNA) amounted to 0.165 fold. Further, the “Fold Enrichment relative to AAV9, Muscle (NHP)” value in test [1] (NHP muscle) was found to be 0.000 fold. Moreover, in test [2] (mouse brain), the “Fold Enrichment relative to AAV9, Brain (Mouse)” value was 117.939 fold.
For the sequence KAINGSGSPHSKAQNAQT, the “Fold Enrichment relative to AAV9, DRG (NHP)” value in test [1] (setting [5]) was determined as 0.000 fold. Further, in test [1] (setting [9]), the “Fold Enrichment relative to AAV9, Brain (NHP)” value was 69.651 fold. Besides, the “Fold Enrichment relative to AAV9, Heart (NHP)” value in test [1] (setting [10]) is recorded as 0.000 fold. For the same sequence, the “Fold Enrichment relative to AAV9, Liver DNA (NHP)” value in test [1] (setting [11]) came out at 0.142 fold. Further, the “Fold Enrichment relative to AAV9, Liver RNA (NHP)” value in test [1] (setting [12]) is 0.023 fold. The “Fold Enrichment relative to AAV9, Muscle (NHP)” value in test [1] (setting [13]) is 0.000 fold. Also, the “Fold Enrichment relative to AAV9, Brain (Mouse)” value in test [2] (setting [14]) is reported as 72.160 fold.
KSINGSGSPHSKAQAQQT: the “Fold Enrichment relative to AAV9, DRG (NHP)” value in test [1] (setting [5]) was determined as 0.000 fold. In addition, in test [1] (setting [9]), the “Fold Enrichment relative to AAV9, Brain (NHP)” value is 66.464 fold. Also, in test [1] (setting [10]), the “Fold Enrichment relative to AAV9, Heart (NHP)” value is 0.711 fold. In addition, the “Fold Enrichment relative to AAV9, Liver DNA (NHP)” value in test [1] (setting [11]) is recorded as 0.111 fold. Also, the “Fold Enrichment relative to AAV9, Liver RNA (NHP)” value in test [1] (setting [12]) is 0.148 fold. Moreover, the “Fold Enrichment relative to AAV9, Muscle (NHP)” value in test [1] (setting [13]) was determined as 0.000 fold. The “Fold Enrichment relative to AAV9, Brain (Mouse)” value in test [2] (setting [14]) was 78.451 fold.
Take KTEKISGSPHSKAQNQQT: the “Fold Enrichment relative to AAV9, Brain (NHP)” value in test [1] (setting [4]) and in test [1] (setting [9]) was 116.603 fold throughout. The “Fold Enrichment relative to AAV9, DRG (NHP)” value was found to be 0.000 fold in test [1] (setting [5]) and 0.000 fold in test [1] (NGS fold-enrichment, NHP DRG). In addition, the “Fold Enrichment relative to AAV9, Heart (NHP)” value in test [1] (NGS fold-enrichment, NHP heart) is 0.000 fold; in test [1] (setting [10]), 0.000 fold. Further, the “Fold Enrichment relative to AAV9, Liver DNA (NHP)” value in test [1] (setting [6]) and in test [1] (setting [11]) was 0.426 fold each time. Further, the “Fold Enrichment relative to AAV9, Liver RNA (NHP)” value in test [1] (setting [7]) and in test [1] (setting [12]) was 0.000 fold each time. Besides, the “Fold Enrichment relative to AAV9, Muscle (NHP)” value in test [1] (setting [8]) and in test [1] (setting [13]) was 0.000 fold in each case. Moreover, the “Fold Enrichment relative to AAV9, Brain (Mouse)” value in test [2] (setting [14]) and in test [2] (setting [15]) was 102.978 fold in each case.
As to KTINGHDSPHKSGQLVIT, in test [1] (setting [4]), the “Fold Enrichment relative to AAV9, Brain (NHP)” value is given as 76.781 fold. Also, in test [1] (NGS fold-enrichment, NHP DRG), the “Fold Enrichment relative to AAV9, DRG (NHP)” value was determined as 0.089 fold. Further, in test [1] (NGS fold-enrichment, NHP heart), the “Fold Enrichment relative to AAV9, Heart (NHP)” value amounted to 0.064 fold. Besides, the “Fold Enrichment relative to AAV9, Liver DNA (NHP)” value in test [1] (setting [6]) is listed as 0.475 fold. Further, the “Fold Enrichment relative to AAV9, Liver RNA (NHP)” value in test [1] (setting [7]) was 0.338 fold. In addition, in test [1] (setting [8]), the “Fold Enrichment relative to AAV9, Muscle (NHP)” value came to 0.000 fold. Moreover, the “Fold Enrichment relative to AAV9, Brain (Mouse)” value in test [2] (setting [15]) worked out at 11.323 fold.
As to KNHIGSGSPHSKAQNQQT, the “Fold Enrichment relative to AAV9, DRG (NHP)” value in test [1] (setting [5]) was 0.000 fold. In addition, the “Fold Enrichment relative to AAV9, Brain (NHP)” value in test [1] (setting [9]) was determined as 64.535 fold. For the same sequence, the “Fold Enrichment relative to AAV9, Heart (NHP)” value in test [1] (setting [10]) was found to be 0.000 fold. Further, the “Fold Enrichment relative to AAV9, Liver DNA (NHP)” value in test [1] (setting [11]) came out at 0.187 fold. Besides, the “Fold Enrichment relative to AAV9, Liver RNA (NHP)” value in test [1] (setting [12]) was determined as 1.253 fold. Further, the “Fold Enrichment relative to AAV9, Muscle (NHP)” value in test [1] (setting [13]) is 0.000 fold. Further, the “Fold Enrichment relative to AAV9, Brain (Mouse)” value in test [2] (setting [14]) is 70.356 fold.
